The source of these data is ChEMBL document CHEMBL1201862, “PubChem BioAssay data set” (2004).

Test [1] is described as follows: M. tuberculosis growth inhibition, HTS (AID 449762). It counts as functional.
Test [2] concerns the target Sphingosine 1-phosphate receptor 2 (Homo sapiens, UniProt O95136). In words: Dose Response Cell Based Assay for Agonists of the S1P2 Receptor. [Related pubchem assays: 729, 736, 843 ]. It counts as functional.
For the next test, the target named is Transthyretin (Homo sapiens, UniProt P02766). In words: Luminescence-based cell-based high throughput dose response assay to identify activators of Transthyretin (TTR) transcription. It counts as functional.
Test [3] deals with Lysine-specific demethylase 4C (Homo sapiens, UniProt Q9H3R0). In words: GASC-1 (JMJD2C) histone demethylase inhibitors, dose response, biochemical, DELFIA europium, cherry-picked samples (AID 488835). It is filed as functional.
Lysine-specific demethylase 4C, sequence (Q9H3R0 whole entry): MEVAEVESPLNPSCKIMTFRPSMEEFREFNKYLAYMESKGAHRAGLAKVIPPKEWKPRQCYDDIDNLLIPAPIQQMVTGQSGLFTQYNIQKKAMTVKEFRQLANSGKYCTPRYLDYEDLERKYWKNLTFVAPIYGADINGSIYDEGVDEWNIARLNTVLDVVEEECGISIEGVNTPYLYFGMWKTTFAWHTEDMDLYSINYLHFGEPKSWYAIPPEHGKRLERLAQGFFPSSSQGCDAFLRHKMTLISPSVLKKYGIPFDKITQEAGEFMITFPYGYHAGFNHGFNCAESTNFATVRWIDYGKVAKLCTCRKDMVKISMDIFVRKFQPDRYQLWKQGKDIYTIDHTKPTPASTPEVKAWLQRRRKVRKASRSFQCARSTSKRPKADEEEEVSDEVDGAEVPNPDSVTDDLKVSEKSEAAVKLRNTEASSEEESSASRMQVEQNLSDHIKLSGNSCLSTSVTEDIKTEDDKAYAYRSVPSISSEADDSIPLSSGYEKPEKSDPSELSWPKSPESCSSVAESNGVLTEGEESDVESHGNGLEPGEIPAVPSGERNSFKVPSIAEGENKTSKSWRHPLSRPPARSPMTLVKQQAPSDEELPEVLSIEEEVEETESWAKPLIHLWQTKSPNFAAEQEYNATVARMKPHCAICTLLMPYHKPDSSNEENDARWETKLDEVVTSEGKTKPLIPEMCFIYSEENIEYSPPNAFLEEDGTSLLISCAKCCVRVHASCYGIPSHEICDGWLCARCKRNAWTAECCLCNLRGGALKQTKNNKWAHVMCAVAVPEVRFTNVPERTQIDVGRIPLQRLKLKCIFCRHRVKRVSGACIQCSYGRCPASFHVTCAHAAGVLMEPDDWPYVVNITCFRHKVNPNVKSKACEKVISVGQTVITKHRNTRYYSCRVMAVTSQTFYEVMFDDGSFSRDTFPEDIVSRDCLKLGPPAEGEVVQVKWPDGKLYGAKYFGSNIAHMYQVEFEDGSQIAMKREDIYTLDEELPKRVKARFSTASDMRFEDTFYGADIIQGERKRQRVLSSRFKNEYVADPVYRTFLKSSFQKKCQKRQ
The nature of test [4]: Jurkat T cell cytotoxicity, dose response, cytotoxicity control for P. falciparum gametocyte viability project, luminescence (AID 1117277).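 Note: potency reflects loss of cellular ATP meaning fewer viable cells.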 It is filed as functional, cell-based.
Test [5] can be described thus: P. falciparum late gametocyte killing, dose response, luminescence (AID 1117278).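 Note: gametocytes exposed to compound for 24 hours.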 It is filed as functional, cell-based.
Test [6] in a line: Vero cell cytotoxicity, dose response, cytotoxicity control for Vif-APOBEC3G degradation inhibitor project, Vero cells (AID 1117358). It counts as functional. As to conditions: Human immunodeficiency virus 1, Vero.
The nature of test [7]: Late stage results for the probe development effort to identify inhibitors of Plasmodium falciparum gametocytes: Luminescence-based cell-based high throughput dose response assay to identify inhibitors of viability of late stage Plasmodium falciparum gametocytes. It is filed as functional.
The next test deals with Streptococcus. In words: Group A Streptococcus viability loss, dose response, counter-screen for streptokinase expression inhibitor project, luminescence, BacTiterGlo (AID 1915).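 Note: potency for reduction of bacterial viability or growth.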 It counts as functional, organism-based. For orientation: A counterscreen serves to expose hits that act by an unwanted route or on another target.
In test [8] the test system is Streptococcus sp. 'group A'. Briefly: growth inhibition of control SK(-) GAS strain, dose response, counter-screen for streptokinase expression inhibitor project, luminescence, kanamycin, BacTiterGlo, confirmation (AID 1900). It counts as functional, organism-based.
A further test has as its target T1, Streptokinase A (Streptococcus pyogenes serotype M1, UniProt P10520).
T1 sequence (P10520 whole entry): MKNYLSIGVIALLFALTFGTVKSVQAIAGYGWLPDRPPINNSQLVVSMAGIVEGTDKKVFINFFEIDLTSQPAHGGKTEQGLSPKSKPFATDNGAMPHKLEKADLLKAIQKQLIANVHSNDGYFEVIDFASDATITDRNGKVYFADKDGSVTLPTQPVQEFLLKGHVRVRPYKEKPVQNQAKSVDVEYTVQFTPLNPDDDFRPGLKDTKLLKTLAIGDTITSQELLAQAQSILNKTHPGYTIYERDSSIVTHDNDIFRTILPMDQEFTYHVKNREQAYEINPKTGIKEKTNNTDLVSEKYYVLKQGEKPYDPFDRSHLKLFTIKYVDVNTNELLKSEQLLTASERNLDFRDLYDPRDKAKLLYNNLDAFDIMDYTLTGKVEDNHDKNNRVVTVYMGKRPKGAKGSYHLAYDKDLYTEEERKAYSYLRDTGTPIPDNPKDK
Briefly: S. pyogenes streptokinase expression inhibitors, potency, dose response, plasminogen activation absorbance, OD405 (AID 1914).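 Note: secreted streptokinase activity via plasminogen activation per viability signal from cell pellet.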 It is filed as functional, Streptococcus pyogenes M1 GAS.

Test [9] is described as follows: cytotoxicity toward Colo320 cells – cell-based, CellTiter-Glo luminescence, IC50, dose response (AID 1117334). It counts as functional. As to conditions: COLO 320.
The nature of test [10]: CellTiter-Glo luminescent dose response of DLD-1 viability loss (AID 1117352). It counts as functional. In general terms: In ATP-based viability assays light output follows the ATP content of the culture.
Test [11] is described as follows: HCT116 cell viability decrease, GSK3B pretreatment – CellTiter-Glo, IC50, dose response (AID 1117339). It is filed as functional. As to conditions: HCT-116.
Test [12] in a line: RKO cell viability reduction, dose response, CellTiter-Glo luminescence (AID 1117322). It counts as functional.
A short description of test [13]: cytotoxicity toward HCT116 cells – cell-based, CellTiter-Glo luminescence, IC50, dose response (AID 1117332). It counts as functional. The following applies: HCT-116.
A short description of test [14]: cytotoxicity toward HT-29 cells – cell-based, CellTiter-Glo luminescence, IC50, dose response (AID 1117330). It is filed as functional.
A short description of test [15]: Concentration-dependent survival of SW480 colon cancer line, luminescence detection with CellTiter-Glo, half-maximal inhibitory concentration (AID 1117338). It counts as functional.
Test [16] is described as follows: SNU-C1 cell viability reduction, dose response, CellTiter-Glo luminescence (AID 1117323). It is filed as functional, cell-based.

Activity calls are given as the source filed them. Where only a bound is given, the exact number is not on record here.

Sphingosine 1-phosphate receptor 2, sequence (O95136 whole entry): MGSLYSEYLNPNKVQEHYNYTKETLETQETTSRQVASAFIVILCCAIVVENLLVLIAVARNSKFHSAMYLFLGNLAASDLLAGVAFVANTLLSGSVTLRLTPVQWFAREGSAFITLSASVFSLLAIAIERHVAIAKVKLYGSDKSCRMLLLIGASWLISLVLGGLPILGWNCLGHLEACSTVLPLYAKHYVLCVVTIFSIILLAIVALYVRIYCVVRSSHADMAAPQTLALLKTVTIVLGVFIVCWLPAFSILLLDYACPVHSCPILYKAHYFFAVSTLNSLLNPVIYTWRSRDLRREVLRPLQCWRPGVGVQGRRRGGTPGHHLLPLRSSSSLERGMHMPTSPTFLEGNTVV

By IC50 is commonly meant the concentration that inhibits the measured activity by half. With `CC(=O)N1C(Nc2ccc(Cl)cc2)CCN1c1ccccc1` (centres undefined), the 50% inhibitory concentration (IC50) in test [1] is > 100 µM (active).

Broadly, the EC50 is the concentration needed to bring the measured effect to its halfway point. Take `NC(=O)c1ccc(NC(=O)C2CCCO2)cc1` (centres undefined): the EC50 in test [2] is > 50 µM (not active).

Usually AC50 stands for the concentration at which the activity in the assay is half-maximal. As to `Cc1ccc(C2CC(c3ccccc3)=NN2C(S)=Nc2ccccc2)o1` (centres undefined), the EC50 at Transthyretin is > 167 µM (inactive). Also, in [3], the AC50 was 20.5 µM (active).

Turning to `CC(C)OC(=O)c1c(NC(=O)c2ccco2)sc2c1CCCC2`, the IC50 in test [4] is > 83.2 µM (inactive); in test [5], > 109 µM (inactive).

Broadly, the CC50 is the concentration giving 50% cytotoxicity. `O=C(Nc1cccc(Cl)c1)C1=Cc2cc(Cl)ccc2OC1`: in test [6], the CC50 is > 40 µM (active).

As for `O=C(NC1=NCCS1)c1cc(-c2ccccc2)nn1-c1ccccc1`, the IC50 in test [7] was > 37.2 µM (inactive). The EC50 in the test with Streptococcus was > 150 µM (not active); in [8], > 150 µM (not active); on Streptokinase A, 34.2 µM (active).

`C=CCCCCCCCCC(=O)OC`: the IC50 in test [9], in [10], in [11], in [12], in [13] and in [14] was > 20 µM (inactive) in each case. The IC50 in test [15] and in test [16] was > 20 µM (inactive) throughout.
